# Laboratory results taken from patent publication US20240228488A1 (TAKEDA PHARMACEUTICAL COMPANY LIMITED, priority 2021, published 2024).
# Target: human activated kallikrein enzyme (Homo sapiens, UniProt P03952)
# Experiment: Plasma kallikrein inhibition, fluorogenic PFR-AMC substrate, 500 pM activated kallikrein format
# Format: biochemical
# Details: 500 pM activated kallikrein, 300 uM PFR-AMC, 30 min preincubation, 10 min reaction; read-out: Primary Dose Response Assay: Average EC50
# In short: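 Enzyme at 500 pM preincubated 30 min RT with inhibitors in 20 mM Tris pH 7.5, 1 mM EDTA, 150 mM NaCl, 0.1% PEG-400, 0.1% Triton X-100. Reaction started with 300 uM PFR-AMC, run 10 min RT; fluorescence read at 460 nm emission, 380 nm excitation. EC50 reported in ranges.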
# human activated kallikrein enzyme, sequence (P03952 391-638 limits assumed): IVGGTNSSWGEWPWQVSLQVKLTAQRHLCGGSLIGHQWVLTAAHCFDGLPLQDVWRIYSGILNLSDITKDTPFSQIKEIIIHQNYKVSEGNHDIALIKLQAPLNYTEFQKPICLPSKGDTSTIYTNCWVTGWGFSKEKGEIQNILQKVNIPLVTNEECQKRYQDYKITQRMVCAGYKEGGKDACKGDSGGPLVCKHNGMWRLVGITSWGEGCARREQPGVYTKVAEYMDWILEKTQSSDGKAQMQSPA
# human activated kallikrein enzyme, sequence (P03952 20-390 partner limits assumed): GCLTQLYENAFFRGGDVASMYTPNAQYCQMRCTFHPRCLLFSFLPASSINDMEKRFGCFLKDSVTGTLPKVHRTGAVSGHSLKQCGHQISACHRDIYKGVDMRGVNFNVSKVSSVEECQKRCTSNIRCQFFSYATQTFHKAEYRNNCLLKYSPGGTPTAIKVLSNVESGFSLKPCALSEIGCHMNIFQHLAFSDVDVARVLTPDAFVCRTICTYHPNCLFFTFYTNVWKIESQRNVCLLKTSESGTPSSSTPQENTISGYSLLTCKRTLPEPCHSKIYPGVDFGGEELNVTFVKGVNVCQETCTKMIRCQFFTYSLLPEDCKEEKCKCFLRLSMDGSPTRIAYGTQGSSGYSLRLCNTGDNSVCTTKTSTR
row,SMILES,EC50
1,"O=C(Nc1ccnc(NCc2cn3cc(C4CC4)ccc3n2)n1)[C@H]1C[C@@H]1c1cccc(Cl)c1 (racemic) [Example 347, (rac-(1S*,2S*))-2-(3-chlorophenyl)-N-(2-(((6-cyclopropylimidazo[1,2-a]pyridin-2-yl)methyl)amino)pyrimidin-4-yl)cyclopropane-1-carboxamide]",10 to 100 nM
2,"Cc1ccnc([C@H]2C[C@@H]2C(=O)Nc2cc(OCc3cn4cc(C5(F)CC5)cc(N5CC(=O)N(C)C5=O)c4n3)cnn2)n1 [Example 676, (1S,2S)—N-(5-((6-(1-fluorocyclopropyl)-8-(3-methyl-2,4-dioxoimidazolidin-1-yl)imidazo[1,2-a]pyridin-2-yl)methoxy)pyridazin-3-yl)-2-(4-methylpyrimidin-2-yl)cyclopropane-1-carboxamide]",< 1 nM
3,"COCc1nc(NC(=O)[C@H]2C[C@@H]2c2nccc(C)n2)cc(N[C@H](C)c2cn3cc(C)cc(N4CC(=O)N(C)C4=O)c3n2)n1 [Example 438, (1S,2S)-N-(2-(methoxymethyl)-6-(((R)-1-(6-methyl-8-(3-methyl-2,4-dioxoimidazolidin-1-yl)imidazo[1,2-a]pyridin-2-yl)ethyl)amino)pyrimidin-4-yl)-2-(4-methylpyrimidin-2-yl)cyclopropane-1-carboxamide]",< 1 nM
4,"Cc1ccnc([C@H]2C[C@@H]2C(=O)Nc2ncc3oc(=O)n(Cc4cn5cc(C6CC6)cc(N6CC(=O)N(C)C6=O)c5n4)c3n2)n1 (racemic) [Example 626, rac-(1S*,2S*)—N-(3-((6-cyclopropyl-8-(3-methyl-2,4-dioxoimidazolidin-1-yl)imidazo[1,2-a]pyridin-2-yl)methyl)-2-oxo-2,3-dihydrooxazolo[4,5-d]pyrimidin-5-yl)-2-(4-methylpyrimidin-2-yl)cyclopropane-1-carboxamide]",< 1 nM
5,"O=C(Nc1cc(NCc2cn3cc(C4CC4)ccc3n2)ncn1)[C@@H]1C[C@@]12C(=O)Nc1ccc(Cl)cc12 (racemic) [Example 510, rac-(1R*,2R*)-5′-chloro-N-(6-(((6-cyclopropylimidazo[1,2-a]pyridin-2-yl)methyl)amino)pyrimidin-4-yl)-2′-oxospiro[cyclopropane-1,3′-indoline]-2-carboxamide]",100 to 1000 nM
6,"Cc1ccnc([C@H]2C[C@@H]2C(=O)Nc2cc(NC(c3cn4cc(C5CC5)cc(N5CC(=O)N(C)C5=O)c4n3)C(F)(F)F)ncn2)n1 (stereo partly drawn) [Example 370, (1S,2S)-N-(6-((1-(6-cyclopropyl-8-(3-methyl-2,4-dioxoimidazolidin-1-yl)imidazo[1,2-a]pyridin-2-yl)-2,2,2-trifluoroethyl)amino)pyrimidin-4-yl)-2-(4-methylpyrimidin-2-yl)cyclopropane-1-carboxamide]",10 to 100 nM
7,"O=C(Nc1cc(NCc2cn3cc(C4CC4)cc(N4CCOCC4=O)c3n2)ncn1)[C@H]1C[C@@H]1c1cccc(Cl)c1 (racemic) [Example 74, rac-(1S*,2S*)-2-(3-chlorophenyl)-N-(6-(((6-cyclopropyl-8-(3-oxomorpholino)imidazo[1,2-a]pyridin-2-yl)methyl)amino)pyrimidin-4-yl)cyclopropane-1-carboxamide]",< 1 nM
8,"CCC(=O)O[C@H]1C[C@H](c2cn3cc(C4CC4)cc(N4CC(=O)N(C)C4=O)c3n2)N(c2cc(NC(=O)[C@H]3C[C@@H]3c3nccc(C)n3)ncn2)C1 [Example 425, (3S,5R)-5-(6-cyclopropyl-8-(3-methyl-2,4-dioxoimidazolidin-1-yl)imidazo[1,2-a]pyridin-2-yl)-1-(6-((1S,2S)-2-(4-methylpyrimidin-2-yl)cyclopropane-1-carboxamido)pyrimidin-4-yl)pyrrolidin-3-yl propionate]",10 to 100 nM
9,"CCc1cc(N2CC(=O)N(C)C2=O)c2nc([C@@H](C)Nc3cc(NC(=O)[C@H]4C[C@@H]4c4nccc(C)n4)nc(C)n3)cn2c1 [Example 429, (1S,2S)-N-(6-(((R)-1-(6-ethyl-8-(3-methyl-2,4-dioxoimidazolidin-1-yl)imidazo[1,2-a]pyridin-2-yl)ethyl)amino)-2-methylpyrimidin-4-yl)-2-(4-methylpyrimidin-2-yl)cyclopropane-1-carboxamide]",< 1 nM
10,"O=C(Nc1cc(NCc2cn3cc(C4CC4)cc(N4C[C@H](O)CC4=O)c3n2)ncn1)[C@H]1C[C@@H]1c1cccc(Cl)c1 (relative stereo) [Example 65, rac-(1S*,2S*)-2-(3-chlorophenyl)-N-(6-(((6-cyclopropyl-8-((R)-4-hydroxy-2-oxopyrrolidin-1-yl)imidazo[1,2-a]pyridin-2-yl)methyl)amino)pyrimidin-4-yl)cyclopropane-1-carboxamide]",1 to 10 nM
11,"Cc1ccnc([C@H]2C[C@@H]2C(=O)Nc2cc(NC(C)c3cn4cc(C5CC5)cc(N5CC(=O)N(CCOCc6ccccc6)C5=O)c4n3)nc(C3CC3)n2)n1 (stereo partly drawn) [Example 409, (1S,2S)-N-(6-((1-(8-(3-(2-(benzyloxy)ethyl)-2,4-dioxoimidazolidin-1-yl)-6-cyclopropylimidazo[1,2-a]pyridin-2-yl)ethyl)amino)-2-cyclopropylpyrimidin-4-yl)-2-(4-methylpyrimidin-2-yl)cyclopropane-1-carboxamide]",10 to 100 nM
12,"CCOC(=O)CCOc1ccc(Cl)cc1[C@H]1C[C@@H]1C(=O)Nc1cc(NCc2cn3cc(C4CC4)ccc3n2)ncn1 (racemic) [Example 312, rac-ethyl 3-(4-chloro-2-((1S*,2S*)-2-((6-(((6-cyclopropylimidazo[1,2-a]pyridin-2-yl)methyl)amino)pyrimidin-4-yl)carbamoyl)cyclopropyl)phenoxy)propanoate]",10 to 100 nM
13,"N#Cc1ccc(Cl)cc1[C@@H]1C[C@H]1C(=O)Nc1cc(NCc2cn3cc(C4CC4)ccc3n2)cnn1 (racemic) [Example 102, rac-(1S*,2S*)-2-(5-chloro-2-cyanophenyl)-N-(5-(((6-cyclopropylimidazo[1,2-a]pyridin-2-yl)methyl)amino)pyridazin-3-yl)cyclopropane-1-carboxamide]",1 to 10 nM
14,"CC1OCCN(c2cc(C3CC3)cn3cc(CNc4cc(NC(=O)[C@H]5C[C@@H]5c5cccc(Cl)c5)ncn4)nc23)C1=O (relative stereo) [Example 68, rac-(1S*,2S*)-2-(3-chlorophenyl)-N-(6-(((6-cyclopropyl-8-(2-methyl-3-oxomorpholino)imidazo[1,2-α]pyridin-2-yl)methyl)amino)pyrimidin-4-yl)cyclopropane-1-carboxamide]",1 to 10 nM
15,"O=C(Nc1cc(NCc2cn3cc(C4CC4)ccc3n2)ncn1)[C@@H]1[C@@H](c2cccc(Cl)c2)C1(F)F (racemic) [Example 503, rac-(1S*,3S*)-3-(3-chlorophenyl)-N-(6-(((6-cyclopropylimidazo[1,2-a]pyridin-2-yl)methyl)amino)pyrimidin-4-yl)-2,2-difluorocyclopropane-1-carboxamide]",1 to 10 nM

# Second part, the compound after the results:
row,EC50,SMILES
1,10 to 100 nM,"Cc1ccnc([C@H]2C[C@@H]2C(=O)Nc2cccc(SCc3cn4cc(C5CC5)cc(N5CC(=O)N(C)C5=O)c4n3)c2)n1 [Example I-645, (1S,2S)—N-(3-(((6-cyclopropyl-8-(3-methyl-2,4-dioxoimidazolidin-1-yl)imidazo[1,2-a]pyridin-2-yl)methyl)thio)phenyl)-2-(4-methylpyrimidin-2-yl)cyclopropane-1-carboxamide]"
2,10 to 100 nM,"O=C(Nc1cc(NCc2cn3cc(C4CC4)ccc3n2)ccn1)[C@H]1C[C@@H]1c1cc(Cl)ccn1 (single isomer, unassigned) [Example I-269, rac-(1S*,2S*)-2-(4-chloropyridin-2-yl)-N-(4-(((6-cyclopropylimidazo[1,2-a]pyridin-2-yl)methyl)amino)pyridin-2-yl)cyclopropane-1-carboxamide]"
3,> 6000 nM,"O=C(Nc1cc(NCc2cn3cc(C4CC4)ccc3n2)ncn1)[C@H]1C[C@@H]1c1cccc(Cl)c1[N+](=O)[O-] (racemic) [Example I-190, rac-(1S*,2S*)-2-(3-chloro-2-nitrophenyl)-N-(6-(((6-cyclopropylimidazo[1,2-a]pyridin-2-yl)methyl)amino)pyrimidin-4-yl)cyclopropane-1-carboxamide]"
4,10 to 100 nM,"COc1ccc(CN2C(=O)CN(c3cc(C4CC4)cn4cc(CNc5ccnc(NC(=O)[C@H]6C[C@@H]6c6cccc(Cl)c6)c5)nc34)C2=O)cc1 [Example I-22, (1S,2S)-2-(3-chlorophenyl)-N-(4-(((6-cyclopropyl-8-(3-(4-methoxybenzyl)-2,4-dioxoimidazolidin-1-yl)imidazo[1,2-a]pyridin-2-yl)methyl)amino)pyridin-2-yl)cyclopropane-1-carboxamide]"
5,10 to 100 nM,"O=C(Nc1cc(NCc2cn3cc(C4CC4)cc(N4CCN5CC(F)(F)CC5C4)c3n2)ncn1)[C@H]1C[C@@H]1c1cccc(Cl)c1 (stereo partly drawn) [Example I-197, (1S,2S)-2-(3-chlorophenyl)-N-(6-(((6-cyclopropyl-8-(7,7-difluorohexahydropyrrolo[1,2-a]pyrazin-2(1H)-yl)imidazo[1,2-a]pyridin-2-yl)methyl)amino)pyrimidin-4-yl)cyclopropane-1-carboxamide]"
6,100 to 1000 nM,"O=C(Nc1cc(NCc2cn3cc(C4CC4)cc(N4CCCC4C(F)(F)F)c3n2)ncn1)[C@H]1C[C@@H]1c1cccc(Cl)c1 (stereo partly drawn) [Example I-158, (1S,2S)-2-(3-chlorophenyl)-N-(6-(((6-cyclopropyl-8-(2-(trifluoromethyl)pyrrolidin-1-yl)imidazo[1,2-a]pyridin-2-yl)methyl)amino)pyrimidin-4-yl)cyclopropane-1-carboxamide]"
7,10 to 100 nM,"O=C(Nc1cc(NCc2nc3ccc(C4CC4)cn3c2F)ncn1)[C@H]1C[C@@H]1c1cccc(Cl)c1 [Example I-152, (1S,2S)-2-(3-chlorophenyl)-N-(6-(((6-cyclopropyl-3-fluoroimidazo[1,2-a]pyridin-2-yl)methyl)amino)pyrimidin-4-yl)cyclopropane-1-carboxamide]"

# Same assay, conditions: comparative compounds, 500 pM activated kallikrein format; read-out: Primary Dose Response Assay: Average EC50
row,EC50,SMILES
1,100 to 1000 nM,Clc1cccc([C@H]2C[C@@H]2CNc2cc(NCc3cn4cc(C5CC5)ccc4n3)ncn2)c1
